This passage reports IC50 results from patent publication US20180280517A1, “Nanocomposite, a Preparation Method Thereof and Method for Treating Cancer Using the Same” (National Chiao Tung University, priority 2017, published 2018).

One assay has as its system A549-ON. The assay can be described thus: A549-ON cell viability / combination index. It is filed as cell-based. The source says:
(§1) The combination index or CI means a value acquired through a calculation based on the Combination Index Theorem. From CI value, the interaction between components within a drug having multiple components can be understood. For example, the CI value quantitatively defines synergism (CI<1), additive effect (CI=1), and antagonism (CI>1) among components.
(§2) The expression fraction affected (Fa) means the fraction affected of a component according to Median-Effect Principle. A CI-Fa plot can be used to define the synergism and antagonism relation between different components.
In a preferable embodiment, A549-ON is chosen as the cancer cell model. A549-ON is incubated with DMC, GEM, CHC/DMC, and CHC/GEM respectively to observe cell viability. In Table 3, DMC and GEM encapsulated by CHC has smaller IC50 comparing to those without CHC encapsulation, providing that an anti-cancer component encapsulated by CHC has higher toxic effect to the cells.
In an embodiment, a plurality of CHC/DMC-GEM having different DMC to GEM ratio including 1:1.2, 1:5, 1:12, and 1:25 are respectively incubated with A549-ON to find a component ratio with better synergistic effect. […]

Another assay relates to A549. The assay can be described thus: A549 cell viability / combination index. Format: cell-based. To be noted: Homo sapiens.
Text: as §1, §2
In another preferable embodiment, A549 cells, which are selected as cancer cell model, are respectively incubated with DMC, GEM, CHC/DMC, and CHC/GEM. In Table 4, DMC or GEM encapsulated by CHC has smaller IC50 comparing to those without CHC encapsulation, proving that an anti-cancer component encapsulated by CHC has higher toxic effect to the cells.
In an embodiment, a plurality of CHC/DMC-GEM having different DMC to GEM ratios including 1:2.5, 1:5, 1:10, and 1:20 are respectively incubated with A549 to find a drug ratio with better synergistic effect. After calculation, a CI versus Fa plot is shown in FIG. 7 based on the viability of A549 cells. […]

As usually defined, the IC50 is the concentration that gives 50% inhibition. `COc1cc(/C=C/C(O)=C/C(=O)/C=C/c2ccc(O)cc2)ccc1O` [DMC, Demethoxycurcumin]: the IC50 in the assay with A549-ON turned out to be 10 µg/mL; in the assay with A549, 10.3 µg/mL.
Turning to `Nc1ccn([C@@H]2O[C@H](CO)[C@@H](O)C2(F)F)c(=O)n1` [GEM, Gemcitabine], the IC50 in the assay on A549-ON and in the assay on A549 was 117 µg/mL throughout.
